Test results published in US7067290B2, “Method for production of polyketides” (Kosan Biosciences Incorporated, priority 2002, dated 2006).

Experiment: pH stability of triketide lactones in fermentation supernatant
Assay type: physicochemical
Conditions: pH values above 6–8 (FIG. 1)
Experimental: Samples were centrifuged to remove cells and insoluble media components. If necessary, supernatants were diluted in 1:1 acetonitrile-water with 0.1% acetic acid. Samples were analyzed by HPLC-MS/MS, quantitating by comparison with an internal analytical standard of 2,4-dimethyl-3-hydroxyoctanoic acid δ-lactone (“P-TKL”). In cases where the purity of the analytic standard was doubtful, titers were renorted as arbitrary units. Samples were injected onto a C18 reversed-phase HPLC column and eluted with a gradient of acetonitrile in water containing 0.1% formic acid. Triketide lactones were detected using multiple reaction monitoring of the following MS/MS transitions: TKL: m/z 173 to 109; CM-TKL: m/z 193 to 119; V-TKL: m/z 171 to 107; and P-TKL: m/z 181 to 123.
To test the stability of CM-TKL and V-TKL in fermentation supernatant, the following experiment was undertaken. Supernatant from flask cultures was collected at the end of an experiment by centrifugation at 2700×g for 20 minutes. The supernatant was divided into four portions. The pH of the control portion was adjusted to 3.5, and that sample was frozen at −20° C. […] The samples were incubated for 18 hours at 30° C. then analyzed for product as described previously with the data reported as percent of the control.

Row | stability in fermentation broth | SMILES
1 | unstable | C[C@@H]1[C@H](O)[C@@H](C)C(=O)O[C@@H]1CCl [CM-TKL]
2 | unstable | C=C[C@H]1OC(=O)[C@H](C)[C@@H](O)[C@H]1C [V-TKL]
